Test results taken from US8551984B2, “Aminopyrimidines as SYK inhibitors” (Merck Sharp & Dohme Corp., priority 2009, dated 2013).

Biological target: recombinant human SYK (GST-hSYK fusion protein) (Homo sapiens, UniProt P43405)
Experiment: biochemical
[1] = rhSYK Activity, Table 113D, upper part
[2] = rhSYK Activity (IC50), recombinant human GST-SYK 5 pM, ATP 25 μM, biotinylated substrate peptide 250 nM, HTRF, 10-dose titration

Text: Homogeneous Time-Resolved Fluorescence (HTRF) Assay for the Recombinant Human SYK Enzyme:

`CCOC(=O)C1CCC(O)(c2ncc(-c3cc(C)cc(Nc4nccc(C)n4)c3)s2)C(C)C1C` (centres unmarked) [Example 113A-70] was tested, and the IC50 (rhSYK Activity, Table 113A) was < 100 nM.

In the case of `Cc1cc(Nc2nccc(C)n2)cc(-c2cnc(C3(O)CCC(C(=O)O)CC3C)s2)c1` (centres unmarked) [Example 113A-80], the IC50 (rhSYK Activity, Table 113A) is reported as < 100 nM.

For `CCOC(=O)C1CCC(O)(c2ncc(-c3cc(C)cc(Nc4nccc(C)n4)c3)s2)C(C)C1` (centres unmarked) [Example 113A-87], the IC50 (rhSYK Activity, Table 113A) was < 100 nM.

`Cc1cc(Nc2nccc(C(F)(F)F)n2)cc(-c2cnc(C3(O)CCC(C(=O)O)CC3C)s2)c1` (centres unmarked) [Example 113A-88] was tested, and the IC50 (rhSYK Activity, Table 113A) was < 100 nM.

For `CCOC(=O)C1CCC(O)(c2ncc(-c3cc(C)cc(Nc4nccc(C(F)(F)F)n4)c3)s2)C(C)C1` (centres unmarked) [Example 113A-89], the IC50 (rhSYK Activity, Table 113A) was < 100 nM.

For `Cc1cc(Nc2nccc(C)n2)cc(-c2cnc(C3(O)CCC(C(=O)O)CC3O)s2)c1` (centres unmarked) [Example 113A-90], the IC50 (rhSYK Activity, Table 113A) was < 100 nM.

With `Cc1cc(Nc2nccc(C)n2)cc(-c2cnc(C3(O)CCC(C(=O)O)CC3(C)C)s2)c1` (centres unmarked) [Example 113A-92] the IC50 (rhSYK Activity, Table 113A) was < 100 nM.

For `Cc1cc(Nc2nccc(C)n2)cc(-c2cnc(C3(O)CC(C)C(C(=O)O)CC3C)s2)c1` (centres unmarked) [Example 113B-3], the IC50 (rhSYK Activity, Table 113B) was < 100 nM.

With `CCOC(=O)C1CC(C)C(O)(c2ncc(-c3cc(C)cc(Nc4nccc(C)n4)c3)s2)CC1C` (centres unmarked) [Example 113B-7] the IC50 (rhSYK Activity, Table 113B) was < 100 nM.

`CCOC(=O)C1CC(C)C(O)(c2ncc(-c3cc(C)cc(Nc4nccc(C)n4)c3)s2)CC1C` (centres unmarked) [Example 113B-8] was tested, and the IC50 (rhSYK Activity, Table 113B) was < 100 nM.

`CCOC(=O)C1CC(C)C(O)(c2ncc(-c3cc(C)cc(Nc4nccc(C)n4)c3)s2)CC1C` (centres unmarked) [Example 113B-9] was tested, and the IC50 (rhSYK Activity, Table 113B) was < 100 nM.

In the case of `CCOC(=O)C1CC(C)C(O)(c2ncc(-c3cc(C)cc(Nc4nccc(C)n4)c3)s2)CC1C` (centres unmarked) [Example 113B-10], the IC50 (rhSYK Activity, Table 113B) is reported as < 100 nM.

In the case of `CCOC(=O)C1CC(C)C(O)(c2ncc(-c3cc(C)cc(Nc4nccc(C)n4)c3)s2)CC1C` (centres unmarked) [Example 113B-11], the IC50 (rhSYK Activity, Table 113B) is reported as 100 to 1000 nM.

For `Cc1cc(Nc2nccc(C(F)(F)F)n2)cc(-c2cnc(C3(O)CC(C)C(C(=O)O)CC3C)s2)c1` (centres unmarked) [Example 113B-12], the IC50 (rhSYK Activity, Table 113B) was < 100 nM.

With `CCOC(=O)C1CC(C)C(O)(c2ncc(-c3cc(C)cc(Nc4nccc(C(F)(F)F)n4)c3)s2)CC1C` (centres unmarked) [Example 113B-17] the IC50 (rhSYK Activity, Table 113B) was < 100 nM.

For `CCOC(=O)C1CC(C)C(O)(c2ncc(-c3cc(C)cc(Nc4nccc(C(F)(F)F)n4)c3)s2)CC1C` (centres unmarked) [Example 113B-18], the IC50 (rhSYK Activity, Table 113B) was < 100 nM.

With `CCOC(=O)C1CC(C)C(O)(c2ncc(-c3cc(C)cc(Nc4nccc(C(F)(F)F)n4)c3)s2)CC1C` (centres unmarked) [Example 113B-19] the IC50 (rhSYK Activity, Table 113B) was < 100 nM.

In the case of `CCOC(=O)C1CC(C)C(O)(c2ncc(-c3cc(C)cc(Nc4nccc(C(F)(F)F)n4)c3)s2)CC1C` (centres unmarked) [Example 113B-20], the IC50 (rhSYK Activity, Table 113B) is reported as 100 to 1000 nM.

In the case of `Cc1cc(Nc2nccc(C)n2)cc(-c2cnc(C3(O)CC(C)C(C(=O)O)C(C)C3)s2)c1` (centres unmarked) [Example 113B-21], the IC50 (rhSYK Activity, Table 113B) is reported as < 100 nM.

`Cc1cc(Nc2nccc(C)n2)cc(-c2cnc(C3(O)CC(C)C(C(=O)OC(C)C)C(C)C3)s2)c1` (centres unmarked) [Example 113B-23] showed an IC50 (rhSYK Activity, Table 113B) of 100 to 1000 nM.

`Cc1cc(Nc2nccc(C(F)(F)F)n2)cc(-c2cnc(C3(O)CC(C)C(C(=O)O)C(C)C3)s2)c1` (centres unmarked) [Example 113B-24] was tested, and the IC50 (rhSYK Activity, Table 113B) was < 100 nM.

`Cc1cc(Nc2nccc(C(F)(F)F)n2)cc(-c2cnc(C3(O)CC(C)C(C(=O)OC(C)C)C(C)C3)s2)c1` (centres unmarked) [Example 113B-26] was tested, and the IC50 (rhSYK Activity, Table 113B) was 1000 to 10000 nM.

Work on `Cc1cc(Nc2nccc(C(F)(F)F)n2)cc(-c2cnc(C3(O)CC(C)C(C(=O)OC(C)C)C(C)C3)s2)c1` (centres unmarked) [Example 113B-27] yielded an IC50 (rhSYK Activity, Table 113B) of 100 to 1000 nM.

`Cc1cc(Nc2nccc(C)n2)cc(-c2cnc(C3(O)C(C)CC(C(=O)O)CC3C)s2)c1` (centres unmarked) [Example 113B-28] was tested, and the IC50 (rhSYK Activity, Table 113B) was < 100 nM.

With `CCOC(=O)C1CC(C)C(O)(c2ncc(-c3cc(C)cc(Nc4nccc(C)n4)c3)s2)C(C)C1` (centres unmarked) [Example 113B-29] the IC50 (rhSYK Activity, Table 113B) was < 100 nM.

With `Cc1cc(Nc2nccc(C(F)(F)F)n2)cc(-c2cnc(C3(O)C(C)CC(C(=O)O)CC3C)s2)c1` (centres unmarked) [Example 113B-30] the IC50 (rhSYK Activity, Table 113B) was < 100 nM.

`CCOC(=O)C1CC(C)C(O)(c2ncc(-c3cc(C)cc(Nc4nccc(C(F)(F)F)n4)c3)s2)C(C)C1` (centres unmarked) [Example 113B-31] was tested, and the IC50 (rhSYK Activity, Table 113B) was < 100 nM.

For `C=C(c1ccc(C(=O)O)cc1)c1ncc(-c2cc(C)cc(Nc3nccc(C(F)(F)F)n3)c2)s1` [Example 113D-1], the IC50 [1] was < 100 nM.

Compound `C=C(c1ccc(C(=O)OC)cc1)c1ncc(-c2cc(C)cc(Nc3nccc(C(F)(F)F)n3)c2)s1` [Example 113D-2] has an IC50 [1] of 100 to 1000 nM.

With `Cc1cc(Nc2nccc(C(F)(F)F)n2)cc(-c2cnc(C3(c4ccc(C(=O)O)cc4)CC3)s2)c1` [Example 113D-3] the IC50 [1] was < 100 nM.

In the case of `Cc1cc(Nc2nccc(C(F)(F)F)n2)cc(-c2cnc(C(C)(C)c3ccc(C(=O)O)cc3)s2)c1` [Example 113D-5], the IC50 [1] is reported as < 100 nM.

In the case of `Cc1cc(Nc2nccc(C(F)(F)F)n2)cc(-c2cnc(C(F)(F)c3ccc(C(=O)O)cc3)s2)c1` [Example 113D-7], the IC50 [1] is reported as < 100 nM.

`COC(=O)c1ccc(C(C)(C)c2ncc(-c3cc(C)cc(Nc4nccc(C(F)(F)F)n4)c3)s2)cc1` [Example 113D-9] was tested, and the IC50 [1] was 100 to 1000 nM.

`Cc1cc(Nc2nccc(C(F)(F)F)n2)cc(-c2cnc(-c3cn[nH]c3)s2)c1` [Example 114, N-{3-methyl-5-[2-(1H-pyrazol-4-yl)-1,3-thiazol-5-yl]phenyl}-4-(trifluoromethyl)pyrimidin-2-amine] was tested, and the IC50 [2] was < 100 nM.

`Cc1cc(Nc2nccc(C(F)(F)F)n2)cc(-c2cnc(-c3cnn4c3CCCC4)s2)c1` [Example 114-1] was tested, and the IC50 [2] was < 100 nM.

With `Cc1cc(Nc2nccc(C(F)(F)F)n2)cc(-c2cnc(-c3cccnc3)s2)c1` [Example 114-3] the IC50 [2] was < 100 nM.

`Cc1cc(Nc2nccc(C(F)(F)F)n2)cc(-c2cnc(-c3ccncc3)s2)c1` [Example 114-4] was tested, and the IC50 [2] was < 100 nM.

In the case of `Cc1cc(Nc2nccc(C(F)(F)F)n2)cc(-c2cnc(-c3cccs3)s2)c1` [Example 114-5], the IC50 [2] is reported as 100 to 1000 nM.

`Cc1cc(Nc2nccc(C(F)(F)F)n2)cc(-c2cnc(-c3ccsc3)s2)c1` [Example 114-6] showed an IC50 [2] of 100 to 1000 nM.

In the case of `Cc1cc(Nc2nccc(C(F)(F)F)n2)cc(-c2cnc(-c3ccco3)s2)c1` [Example 114-7], the IC50 [2] is reported as < 100 nM.

`Cc1cc(Nc2nccc(C(F)(F)F)n2)cc(-c2cnc(-c3ccc[nH]3)s2)c1` [Example 114-8] was tested, and the IC50 [2] was < 100 nM.

In the case of `Cc1cc(Nc2nccc(C(F)(F)F)n2)cc(-c2cnc(-c3cnn(CCO)c3)s2)c1` [Example 115, 2-{4-[5-(3-methyl-5-{[4-(trifluoromethyl)pyrimidin-2-yl]amino}phenyl)-1,3-thiazol-2-yl]-1H-pyrazol-1-yl}ethanol], the IC50 [2] is reported as < 100 nM.

For `Cc1cc(Nc2nccc(C(F)(F)F)n2)cc(-c2cnc(-c3cnn(C4CCOCC4)c3)s2)c1` [Example 115-1], the IC50 (rhSYK Activity, Table 115) was < 100 nM.

`Cc1cc(Nc2nccc(C(F)(F)F)n2)cc(-c2cnc(-c3cnn(CCC#N)c3)s2)c1` [Example 115-2] was tested, and the IC50 (rhSYK Activity, Table 115) was < 100 nM.

For `Cc1cc(Nc2nccc(C(F)(F)F)n2)cc(-c2cnc(-c3cnn(CCCO)c3)s2)c1` [Example 115-3], the IC50 (rhSYK Activity, Table 115) was < 100 nM.

For `Cc1cc(Nc2nccc(C(F)(F)F)n2)cc(-c2cnc(-c3cnn(C[C@@H](O)CO)c3)s2)c1` [Example 115-4], the IC50 (rhSYK Activity, Table 115) was < 100 nM.

For `Cc1cc(Nc2nccc(C(F)(F)F)n2)cc(-c2cnc(-c3cnn(CC(C)(C)O)c3)s2)c1` [Example 115-5], the IC50 (rhSYK Activity, Table 115) was < 100 nM.

For `Cc1cc(Nc2nccc(C(F)(F)F)n2)cc(-c2cnc(-c3cnn(C(CCO)C(=O)O)c3)s2)c1` (centres unmarked) [Example 115-6], the IC50 (rhSYK Activity, Table 115) was < 100 nM.

For `Cc1cc(Nc2nccc(C(F)(F)F)n2)cc(-c2cnc(-c3cnn(CC4CNC(=O)O4)c3)s2)c1` (centres unmarked) [Example 115-7], the IC50 (rhSYK Activity, Table 115) was < 100 nM.

For `Cc1cc(Nc2nccc(OC(C)C)n2)cc(-c2cnc([C@@]3(O)CC[C@H](C(N)=O)C(C)(C)C3)s2)c1` [Example 119, (1S,4R)-4-hydroxy-2,2-dimethyl-4-[5-(3-methyl-5-{[4-(propan-2-yloxy)pyrimidin-2-yl]-amino}phenyl)-1,3-thiazol-2-yl]cyclohexanecarboxamide], the IC50 [2] was < 100 nM.

In the case of `COC(=O)[C@@H]1CC[C@@](O)(c2ncc(-c3cc(C)cc(Nc4nccc(C(F)(F)F)n4)c3)s2)CC1(C)C` [Example 121, Methyl(1R,4S)-4-hydroxy-2,2-dimethyl-4-[5-(3-methyl-5-{[4-(trifluoromethyl)pyrimidin-2-yl]-amino}phenyl)-1,3-thiazol-2-yl]cyclohexanecarboxylate], the IC50 [2] is reported as < 100 nM.

`COCCCc1ccnc(Nc2cc(C)cc(-c3cnc(C4(O)CCC(C(=O)OC(C)(C)C)CC4)s3)c2)n1` (centres unmarked) [Example 122, tert-butyl 4-hydroxy-4-[5-(3-{[4-(3-methoxypropyl)pyrimidin-2-yl]amino}-5-methylphenyl)-1,3-thiazol-2-yl]cyclohexanecarboxylate] was tested, and the IC50 [2] was 100 to 1000 nM.

In the case of `CC1(C)C[C@@](O)(c2ncc(-c3cc(CN)cc(Nc4nccc(C(F)(F)F)n4)c3)s2)CC[C@@H]1C(=O)O` [Example 123, (1S,4R)-4-{5-[3-(aminomethyl)-5-{[4-(trifluoromethyl)pyrimidin-2-yl]amino}phenyl]-1,3-thiazol-2-yl}-4-hydroxy-2,2-dimethylcyclohexanecarboxylic acid], the IC50 [2] is reported as < 100 nM.

For `CC1(C)C[C@@](O)(c2ncc(-c3cc(CNC(N)=O)cc(Nc4nccc(C(F)(F)F)n4)c3)s2)CC[C@@H]1C(=O)O` [Example 124, (1S,4R)-4-[5-(3-[(carbamoylamino)methyl]-5-{[4-(trifluoromethyl)pyrimidin-2-yl]amino}phenyl)-1,3-thiazol-2-yl]-4-hydroxy-2,2-dimethylcyclohexanecarboxylic acid], the IC50 [2] was < 100 nM.

`CC(=O)NCc1cc(Nc2nccc(C(F)(F)F)n2)cc(-c2cnc([C@@]3(O)CC[C@H](C(=O)O)C(C)(C)C3)s2)c1` [Example 125, (1S,4R)-4-[5-(3-[(acetylamino)methyl]-5-{[4-(trifluoromethyl)pyrimidin-2-yl]amino}phenyl)-1,3-thiazol-2-yl]-4-hydroxy-2,2-dimethylcyclohexanecarboxylic acid] was tested, and the IC50 [2] was < 100 nM.

For `Cc1cc(Nc2nccc(C(F)(F)F)n2)cc(-c2cnc(C3(OCCO)CCNC(=O)CC3)s2)c1` (centres unmarked) [Example 127, 5-(2-hydroxyethoxy)-5-[5-(3-methyl-5-{[4-(trifluoromethyl)pyrimidin-2-yl]amino}phenyl)-1,3-thiazol-2-yl]azepan-2-one], the IC50 [2] was < 100 nM.
